According to ChEMBL document CHEMBL5365457, “Selective HDAC3 Inhibitors with Potent In Vivo Antitumor Efficacy against Triple-Negative Breast Cancer” (J Med Chem, 2023):
Active and inactive are the calls of the source. No cut-off for these calls is given here.

Tests used:
MCF7 = test: Cytotoxicity against human MCF7 cells assessed as inhibition of cell growth incubated for 72 hrs by MTT assay; format: functional, cell-based; settings: MCF7, 72 h
4T1 [1] = test: Cytotoxicity against mouse 4T1 cells assessed as inhibition of cell growth incubated for 72 hrs by MTT assay; format: functional, cell-based; settings: 4T1, 72 h
MDA-MB-231 [2] = test: Cytotoxicity against human MDA-MB-231 cells assessed as inhibition of cell growth incubated for 72 hrs by MTT assay; format: functional, cell-based; settings: MDA-MB-231, 72 h
MDA-MB-453 = test: Cytotoxicity against human MDA-MB-453 cells assessed as inhibition of cell growth incubated for 72 hrs by MTT assay; format: functional, cell-based; settings: MDA-MB-453, 72 h
[3] = Cytotoxicity against human MCF-10A cells assessed as inhibition of cell growth incubated for 72 hrs by MTT assay; format: toxicity, cell-based
[4] = Cytotoxicity against human HCEC cells assessed as inhibition of cell growth incubated for 72 hrs by MTT assay; format: toxicity, cell-based; settings: human, HCEC cells
[5] = Half life in Wistar rat at 15 mg/kg, ip measured upto 24 hrs by HPLC analysis; format: ADME, organism-based; settings: in vivo
[6] = Tmax in Wistar rat at 15 mg/kg, ip measured upto 24 hrs by HPLC analysis; format: ADME, organism-based; settings: in vivo
[7] = Cmax in Wistar rat at 15 mg/kg, ip measured upto 24 hrs by HPLC analysis; format: ADME, organism-based; parameters: dose 15 mg/kg, time < 24 hrs, route ip; settings: in vivo
[8] = AUC (0 to t) in Wistar rat at 15 mg/kg, ip measured upto 24 hrs by HPLC analysis; format: ADME, organism-based; parameters: dose 15 mg/kg, time < 24 hrs, route ip; settings: in vivo
[9] = AUC (0 to infinity) in Wistar rat at 15 mg/kg, ip measured upto 24 hrs by HPLC analysis; format: ADME, organism-based; parameters: dose 15 mg/kg, time < 24 hrs, route ip; settings: in vivo
[10] = MRT (0 to infinity) in Wistar rat at 15 mg/kg, ip measured upto 24 hrs by HPLC analysis; format: ADME, organism-based; settings: in vivo
[11] = Apparent volume of distribution in Wistar rat at 15 mg/kg, ip measured upto 24 hrs by HPLC analysis; format: ADME, organism-based; settings: in vivo
[12] = Apparent oral clearance in Wistar rat at 15 mg/kg, ip measured upto 24 hrs by HPLC analysis; format: ADME, organism-based; settings: in vivo
[13] = AUMC (0 to infinity) in Wistar rat at 15 mg/kg, ip measured upto 24 hrs by HPLC analysis; format: ADME, organism-based; settings: in vivo
4T1 [14] = test: Induction of apoptosis in mouse 4T1 cells at 1.54 uM incubated for 72 hrs by annexin/PI staining based flow cytometry analysis (reference value: 1.35%); format: functional
4T1 [15] = test: Cell cycle arrest in mouse 4T1 cells assessed as accumulation of cells at G1 phase at 1.54 uM incubated for 72 hrs by flow cytometry; format: functional
4T1 [16] = test: Cell cycle arrest in mouse 4T1 cells assessed as accumulation of cells at G1 phase at 7.72 uM incubated for 72 hrs by flow cytometry; format: functional
4T1 [17] = test: Cell cycle arrest in mouse 4T1 cells assessed as accumulation of cells at G1 phase at 38.6 uM incubated for 72 hrs by flow cytometry; format: functional
MDA-MB-231 [18] = test: Cytotoxicity against wild type human MDA-MB-231 cells assessed as reduction in cell viability incubated for 72 hrs by MTT assay; format: functional, cell-based; settings: MDA-MB-231, 72 h
[19] = Cytotoxicity against Oxaliplatin-resistant human MDA-MB-231 cell assessed as reduction in cell viability incubated for 72 hrs by MTT assay; format: functional, cell-based; settings: Oxaliplatin-resistant MDA-MB-231 cell
4T1 [20] = test: Antitumor activity against mouse 4T1 cells implanted in BALB/c mouse assessed as reduction in tumor volume at 15 mg/kg, ip administered 5 times a week for 21 days (reference value: 52.25 +/-13.24 mm3); format: functional; settings: time 21 day
4T1 [21] = test: Antitumor activity against mouse 4T1 cells implanted in BALB/c mouse assessed as reduction in tumor volume at 5 mg/kg, ip administered 5 times a week for 21 days (reference value: 51.91 +/-7.45 mm3); format: functional; settings: time 21 day
4T1 [22] = test: Antitumor activity against mouse 4T1 cells implanted in BALB/c mouse assessed as reduction in tumor weight at 15 mg/kg, ip administered 5 times a week for 21 days; format: functional; settings: time 21 day
4T1 [23] = test: Antitumor activity against mouse 4T1 cells implanted in BALB/c mouse assessed as tumor growth inhibition at 15 mg/kg, ip measured on day 7; format: functional; settings: 4T1, 168 h, time 7 day, read-out: TGI
4T1 [24] = test: Antitumor activity against mouse 4T1 cells implanted in BALB/c mouse assessed as tumor growth inhibition at 15 mg/kg, ip measured on day 14; format: functional; settings: 4T1, 336 h, time 14 day, read-out: TGI
4T1 [25] = test: Antitumor activity against mouse 4T1 cells implanted in BALB/c mouse assessed as tumor growth inhibition at 15 mg/kg, ip measured on day 21; format: functional; settings: 4T1, 504 h, time 21 day, read-out: TGI
4T1 [26] = test: Antitumor activity against mouse 4T1 cells implanted in BALB/c mouse assessed as increase in apoptosis in tumor tissue at 5 to 15 mg/kg, ip by TUNEL staining based microscopic analysis; format: functional, organism-based; settings: dose 5-15 mg/kg
4T1 [27] = test: Antitumor activity against mouse 4T1 cells implanted in BALB/c mouse assessed as reduction in Ki-67 expression in tumor tissue at 5 to 15 mg/kg, ip measured for 21 days by fluorescence based microscopic analysis; format: functional, organism-based; settings: dose 5-15 mg/kg, time 21.0 day
[28] = Toxicity in BALB/c mouse implanted with mouse 4T1 cells assessed as heart damage at 5 to 15 mg/kg, ip measured after 21 days by H and E staining based assay; format: organism-based; settings: in vivo, 504 h, dose 5-15 mg/kg, time 21 day
[29] = Toxicity in BALB/c mouse implanted with mouse 4T1 cells assessed as liver damage at 5 to 15 mg/kg, ip measured after 21 days by H and E staining based assay; format: organism-based; settings: in vivo, 504 h, dose 5-15 mg/kg, time 21 day
[30] = Toxicity in BALB/c mouse implanted with mouse 4T1 cells assessed as kidney damage at 5 to 15 mg/kg, ip measured after 21 days by H and E staining based assay; format: organism-based; settings: in vivo, 504 h, dose 5-15 mg/kg, time 21 day
[31] = Toxicity in BALB/c mouse implanted with mouse 4T1 cells assessed as spleen damage at 5 to 15 mg/kg, ip measured after 21 days by H and E staining based assay; format: organism-based; settings: in vivo, 504 h, dose 5-15 mg/kg, time 21 day
4T1 [32] = test: Antitumor activity against mouse 4T1 cells implanted in BALB/c mouse assessed as increase in number of lung nodules at 15 mg/kg, ip measured for 7 days by H and E staining based assay; format: functional, organism-based; settings: time 7.0 day

- half-life [5]: 5.18 h
- Tmax [6]: 2 h
- Cmax [7]: 5240 ng/mL
- AUC(0-t) at 24 h [8]: 14500 ng·h/mL
- AUC(0-inf) [9]: 14700 ng·h/mL
- MRT inf [10]: 3.66 h
- Vz/F [11]: 7.65 (mg/kg)/(ug/ml)
- CL/F [12]: 1.03 (mg/kg)/(ug/ml).hr
- AUMC [13]: 53.64 ug/ml.hr^2
SMILES: CCCCNNC(=O)c1ccc(Br)cc1
- IC50 (MCF7): 15.4 µM
- IC50 (4T1 [1]): 7.72 µM
- IC50 (MDA-MB-231 [2]): 24.7 µM
- IC50 (MDA-MB-453): 25.3 µM
- IC50 at 72 h [3]: 99.3 µM
- IC50 at 72 h [4]: 95.4 µM
- Activity (4T1 [14]): 30.4%
- Activity (4T1 [15]): 50.4%
- Activity (4T1 [16]): 41.4%
- Activity (4T1 [17]): 52.3%
- IC50 (MDA-MB-231 [18]): 24.7 µM
- IC50 [19]: 27.4 µM
- Activity (4T1 [20]): 520.32 mm3
- Activity (4T1 [21]): 1005.32 mm3
- Activity (4T1 [22]): 0.29 g
- inhibition in vivo at 15 mg/kg (4T1 [23]): 55.6%
- inhibition in vivo at 15 mg/kg (4T1 [24]): 38.4%
- inhibition in vivo at 15 mg/kg (4T1 [25]): 39.5%
- Activity (4T1 [26]): Active
- Activity (4T1 [27]): Active
- Activity [28]: Non-Toxic
- Activity [29]: Non-Toxic
- Activity [30]: Non-Toxic
- Activity [31]: Non-Toxic
- Activity (4T1 [32]): inactive
